The assay relates to TPA-stimulated epidermal DNA synthesis in mouse epidermis. Description: TPA-induced epidermal DNA synthesis in mouse epidermis, transdermal fluasterone. Conditions: for cpm/μg DNA: 20 h, single mice and group mean. Format: in vivo, CD-1 mice. The method, then:
In dose-response experiments the anti-hyperplastic efficacy of fluasterone in TPA-treated mouse epidermis to determine bioavailability following different routes of administration was measured. Mice were treated with a single dose of fluasterone (either orally, subcutaneously, or transdermally) followed by a single application of TPA to the shaved back one hour latter. In case of transdermal administration, fluasterone is applied in a topical formulation to the shaved abdomen to allow for systemic absorption to the back of the animal. Twenty hours after TPA application, the mice are injected with 60 μCi of [3H] thymidine, sacrificed 20 minutes later, and a 2×2 cm2 of skin from the shaved back is excised and processed for the determination of the amount of [3H] thymidine incorporated per unit of epidermal DNA. (Hennings et. al., Cancer Res. 28:543-552, 1968).
Female CD-1 mice, 40-43 days old, were obtained from Charles River Laboratories, Kingston, N.Y. The mice were housed two per cage in plastic shoebox cages on Absorbdri bedding with 12 hours of alternating light and dark in the Central Animal Facility. The mice had ad libitum access to Purina 5015 chow and acidified tap water (pH S 2.6). The mice were allowed to acclimate to the facility for approximately two weeks prior to use in an experiment. […]
The mice were weighed, marked with magic marker on the tail, and shaved on the back and the abdomen one day prior to treatment. Only those mice showing no hair regrowth were used in the experiment. Fluasterone was applied to the shaved abdomen one hour before TPA was applied to the shaved back. The mice were anesthetized and on their backs prior to topical application of TPA. […]
The mice were anesthetized with Isoflurane, and then were given an intramuscular injection of 0.1 mL solution of ketamine (50 mg/kg), xylazine (10 mg/kg) and atropine (0.1 mg/kg). Approximately 10 minutes after the i.m. injection (after the mice could not turn over when placed on their backs), the mice were treated with 5 μL of a 12.5 mg/mL fluasterone/carbitol solution to give a dose of 2.5 mg/kg. The mice were anesthetized and on their backs for approximately 30 minutes after application of fluasterone/carbitol solution. One hour after the application of fluasterone/carbitol solution, 2 μg of TPA dissolved in. 0.2 mL of acetone was applied to the shaved area on the back of each mouse. […]
The mice were anesthetized with Isoflurane, and then were given an intramuscular injection of 0.1 mL solution of ketamine (50 mg/kg), xylazine (10 mg/kg) and atropine (0.1 mg/kg). Approximately 10 minutes after the i.m. injection (after the mice could not turn over when placed on their backs), the mice were treated with 2.5 μl, of a 12.5 mg/mL fluasterone/carbitol solution to give a dose of 1.25 mg/kg. The mice were anesthetized and on their backs for approximately 30 minutes after application of fluasterone/carbitol solution. One hour after the application of fluasterone/carbitol solution, 2 μg of TPA dissolved in 0.2 mL of acetone was applied to the shaved area on the back of each mouse.
The mice were anesthetized with Isoflurane, and then were given an intramuscular injection of 0.1 mL solution of ketamine (50 mg/kg), xylazine (10 mg/kg) and atropine (0.1 mg/kg). Approximately 10 minutes after the i.m. injection (after the mice could not turn over when placed on their backs), the mice were treated with 10 μL of a 12.5 mg/mL fluasterone/Cremophor EL solution to give a dose of 5 mg/kg. The mice were anesthetized and on their backs for approximately 30 minutes after application of fluasterone/Cremophor EL solution. One hour after the application of fluasterone/Cremophor EL solution, 2 μg of TPA dissolved in 0.2 mL of acetone was applied to the shaved area on the back of each mouse.
The mice were anesthetized with Isoflurane, and then were given an intramuscular injection of 0.1 mL solution of ketamine (50 mg/kg), xylazine (10 mg/kg) and atropine (0.1 mg/kg). […]

“And” between values parts separate entries of the source, which are not always exact repeats. Identical values can stand only once. Bounds are passed on as bounds.

`C[C@]12CCCCC1=CC[C@@H]1[C@@H]2CC[C@]2(C)C(=O)[C@H](F)C[C@@H]12` [Fluasterone, 16α-fluoro-5-androsten-17-one]: the “cpm/μg DNA” value (Cremophor EL solution, 1.25 mg/kg transdermal (abdomen) 1 h before 2 μg TPA (back), 1.25 mg/kg) is 507.3 cpm/μg DNA and 414.3 cpm/μg DNA and 460.1 ± 65.8 cpm/μg DNA; the “cpm/μg DNA” value (Cremophor EL solution, 5 mg/kg transdermal (abdomen) 1 h before 2 μg TPA (back), 5 mg/kg) is 116.7 cpm/μg DNA and 147.4 cpm/μg DNA and 132.1 ± 21.7 cpm/μg DNA; the “cpm/μg DNA” value (carbitol solution, 1.9 mg/kg transdermal (abdomen) 1 h before 2 μg TPA (back), 1.9 mg/kg) is 365.9 cpm/μg DNA and 227.7 cpm/μg DNA and 296.8 ± 97.7 cpm/μg DNA; the “cpm/μg DNA” value (carbitol solution, 5 mg/kg transdermal (abdomen) 1 h before 2 μg TPA (back), 5 mg/kg) was 533.8 cpm/μg DNA and 467.1 cpm/μg DNA and 500.5 ± 47.2 cpm/μg DNA; the “cpm/μg DNA” value (ethanol:limonene:isopropyl myristate (81:15:4) solution, 1.5 mg/kg transdermal (abdomen) 1 h before 2 μg TPA (back), 1.5 mg/kg) was 226.9 cpm/μg DNA and 147.5 cpm/μg DNA. The lowest effective dose (Tween 80:ethanol (50:50 v/v) solution, transdermal) is ≤ 2.5 mg/kg. Besides, the “transdermal potency compared with s.c. administration in abolishing TPA-stimulated hyperplasia” value (mice) was “as potent as subcutaneous injection”. Besides, the “transdermal dose that suppresses TPA-stimulated epidermal [3H]thymidine incorporation and/or epidermal DNA content” value (topical solutions and suspension applied to abdomen) was 2.5 mg/kg.
For the compound `CCCCCCCCCCCCCC(=O)O[C@@H]1[C@@H](C)[C@@]2(O)[C@@H](C=C(CO)C[C@]3(O)C(=O)C(C)=C[C@@H]23)[C@@H]2C(C)(C)[C@]12OC(C)=O` [TPA, 12-O-tetradecanoylphorbol-13-acetate, reference compound], the “cpm/μg DNA” value (TPA 2 μg (back) after carbitol vehicle only) was 331.5 cpm/μg DNA and 353.6 cpm/μg DNA and 342.6 ± 15.6 cpm/μg DNA.

The values above are taken from patent publication US9408856B2, “Topical steroidal formulations” (Temple University—Of The Commonwealth System of Higher …, priority 2008, dated 2016).
